Test results as given in patent publication US11324787B2, “Analytical methods and arrays for use in the same” (SENZAGEN AB, priority 2017, dated 2022).
“And” between values parts separate entries of the source, which are not always exact repeats. Identical values can stand only once. “Also recorded” adds a separate entry of the source. Like-named read-outs stand apart in the source and are kept apart here.

Tests used:
[1] = tested on: myeloid cell line derived from MUTZ-3; assay: Cytotoxicity / viability by flow cytometry (propidium iodide), 24 hours exposure; conditions: yes/no; MUTZ-3 derived cells
[2] = cited from earlier work; for binary class: sens / non-sens; for true CLP: test set
[3] = cited from earlier work; for binary class (HP*): based on human potency [41] where available, otherwise according to CLP; for HP: human potency, chemicals of random forest training and test set
[4] = tested on: myeloid cell line derived from MUTZ-3; assay: GARD binary classification (SVM on GARD prediction signature, 200 transcripts); conditions: for GARD binary prediction: SVM, median calibrated decision value of replicates >0 = sensitizer
[5] = tested on: myeloid cell line derived from MUTZ-3; assay: GARD random forest model predicting CLP categories (52 transcripts, Example A); conditions: test set; for GARD predicted CLP: majority voting across replicates; for predicted CLP: separate replicates
[6] = CLP annotation of 37 novel chemicals
[7] = Table 9, chemicals training set
[8] = chemicals of random forest training and test set

SMILES	cytotox [1]	CLP [2, 6]	CLP [2, 7]	CLP [2, 8]	binary class [2, 8]	binary class (HP*) [3]	HP [3]	GARD binary prediction [4]	CLP ([2]; Table 10, chemicals test set 1)	true CLP ([2]; per replicate line)	true CLP [2]	GARD predicted CLP [5]	predicted CLP [5]	GARD binary classification relative to cut-off defined by benchmark samples ([4]; misclassified sensitizing chemicals)
CC(C)C1=CC2=CC[C@@H]3[C@](C)(CCC[C@@]3(C)C(=O)O)[C@H]2CC1 [abietic acid]	no	1B	1B	1B	sens	S (HP 1-4 = S)	3	S						
Clc1nc(Cl)nc(Cl)n1 [cyanuric chloride]	yes	1A		1A	sens	S (HP 1-4 = S)			1A	1A	1A	no cat; also recorded: no category	no cat (2×) and 1B	
CN(C)CCCN1c2ccccc2Sc2ccc(Cl)cc21 [chlorpromazine]	yes	1A	1A	1A	sens	S (HP 1-4 = S)	3	S						
CCCCCCOC(=O)c1ccccc1O [hexyl salicylate]	yes	1A	1A	1A	sens	S (HP 1-4 = S)	4	S						
CCOC(=O)c1ccc(N)cc1 [benzocaine]	no	1B		1B	sens	S (HP 1-4 = S)	4							close to the cut-off
CCCCCCCCCCCCCC(=O)OC(C)C [isopropyl myristate]	no	1B	1B	1B	sens	NS (5-6 = NS)	5							
Oc1c(Cl)c(Cl)c(Cl)c(Cl)c1Cl [pentachlorophenol]	no	1B	1B	1B	sens	NS (5-6 = NS)	5							
OCCNCCO [diethanolamine]	no	1B	1B	1B	sens	NS (5-6 = NS)	5							
CC(C)=CCCC(C)CCO (stereo not drawn) [citronellol]	no	1B	1B	1B	sens	NS (5-6 = NS)	5	S						
Cc1cccc(O)c1O [3-methylcatechol, 3-Methylcatechol]	yes	1A	1A	1A	sens	S (HP 1-4 = S)		S						
CC(C)=CCCC(C)=CC=O [citral]	yes	1B	1B	1B	sens	S (HP 1-4 = S)	3	S						
O=C1C=CC(=O)C=C1 [p-benzochinone, p-benzoquinone]	yes											1A	1A	
CCCCCC#CC(=O)OC [methyl heptine carbonate]	yes	1A	1A	1A	sens	S (HP 1-4 = S)	2	S						
